In PMC6149712, “Anti-Allergic Activity of Monoacylated Ascorbic Acid 2-Glucosides” (Molecules : A Journal of Synthetic Chemistry and Natural …, 2017):
Counter-ions that a name gives are not always drawn.

Legend:
Type in all cases: biochemical
[1] = molecular target: T1, hyaluronidase type IV-S from a bovine testis (Bos taurus, UniProt Q2YDK3); assay: Morgan-Elson colorimetric hyaluronidase assay
T1 construct: gene SPAM1
T1 sequence (Q2YDK3 36-553): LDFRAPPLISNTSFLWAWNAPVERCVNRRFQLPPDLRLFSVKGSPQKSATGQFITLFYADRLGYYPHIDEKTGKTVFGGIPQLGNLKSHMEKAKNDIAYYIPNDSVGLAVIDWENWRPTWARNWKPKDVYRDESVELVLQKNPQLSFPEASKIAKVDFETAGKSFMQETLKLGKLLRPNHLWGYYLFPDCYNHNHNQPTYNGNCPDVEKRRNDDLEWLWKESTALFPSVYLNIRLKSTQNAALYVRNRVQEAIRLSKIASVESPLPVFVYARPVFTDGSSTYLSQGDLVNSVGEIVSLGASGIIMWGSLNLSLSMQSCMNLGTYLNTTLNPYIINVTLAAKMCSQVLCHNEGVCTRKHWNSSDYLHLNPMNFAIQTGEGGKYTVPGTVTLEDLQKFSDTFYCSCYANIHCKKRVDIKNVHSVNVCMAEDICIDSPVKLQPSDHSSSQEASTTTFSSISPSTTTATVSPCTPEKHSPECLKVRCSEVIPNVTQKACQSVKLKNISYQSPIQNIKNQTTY

[2] = molecular target: T1, hyaluronidase type IV-S from a bovine testis; assay: Morgan-Elson colorimetric hyaluronidase assay; remark: listed apart in the source
[3] = molecular target: T1, hyaluronidase type IV-S from a bovine testis; assay: Morgan-Elson colorimetric hyaluronidase assay, positive control

| IC50 [1] [µM] | Structure (SMILES) | Morgan-Elson colorimetric hyaluronidase assay [2] | further results |
| --- | --- | --- | --- |
| 194 | CCCCCCCCCCCCCCCC(=O)OC[C@H](O)[C@H]1OC(=O)C(O)=C1O [6-Palm-AA, 6-O-palmitoyl-L-AA] | – | – |
| – | CCCCCCC(CCCCCC)C(=O)OC[C@H](O)[C@H]1OC(=O)C(O[C@H]2O[C@H](CO)[C@@H](O)[C@H](O)[C@H]2O)=C1O [6-bMyri-AA-2G] | 6-bMyri-AA-2G and 6-bPalm-AA-2G significantly inhibited the activity more than 6-bDode-AA-2G | – |
| – | CCCCCCCC(CCCCCCC)C(=O)OC[C@H](O)[C@H]1OC(=O)C(O[C@H]2O[C@H](CO)[C@@H](O)[C@H](O)[C@H]2O)=C1O [6-bPalm-AA-2G] | 6-bMyri-AA-2G and 6-bPalm-AA-2G significantly inhibited the activity more than 6-bDode-AA-2G | – |
| – | CCCCCCCCCCCCCC(=O)OC[C@H](O)[C@H]1OC(=O)C(O[C@H]2O[C@H](CO)[C@@H](O)[C@H](O)[C@H]2O)=C1O [6-sMyri-AA-2G] | 6-sMyri-AA-2G and 6-sPalm-AA-2G significantly inhibited the activity more than 6-sDode-AA-2G | – |
| 22 | CCCCCCCCCCCCCCCC(=O)OC[C@H](O)[C@H]1OC(=O)C(O[C@H]2O[C@H](CO)[C@@H](O)[C@H](O)[C@H]2O)=C1O [6-sPalm-AA-2G, 2-O-α-D-Glucopyranosyl-6-O-hexadecanoyl-L-ascorbic acid] | – | – |
| 25 | CCCCCCCCCCCCCCCC(=O)OC[C@H](O)[C@H]1OC(=O)C(O[C@@H]2O[C@H](CO)[C@@H](O)[C@H](O)[C@H]2O)=C1O [6-sPalm-AA-2βG, 2-O-β-D-glucopyranosyl-6-O-hexadecanoyl-L-ascorbic acid] | – | – |
| – | O=C(O)c1cc(=O)c2c(OCC(O)COc3cccc4oc(C(=O)O)cc(=O)c34)cccc2o1 [DSCG, Cromolyn sodium salt] | – | Morgan-Elson colorimetric hyaluronidase assay, positive control [3]: Cromolyn sodium salt (DSCG), which is used clinically as an anti-allergy drug, was used as a positive control. |
